According to patent US10934285B2, “Compounds and compositions for inhibiting the activity of SHP2” (Novartis AG, priority 2016, dated 2021):

Molecular target: SHP2 (Homo sapiens (Human), UniProt Q06124)
Experiment: SHP2 Allosteric Inhibition Assay
Assay type: biochemical
Settings: 0.5 nM SHP2 activated with 0.5 μM peptide IRS1_pY1172(dPEG8)pY1222; surrogate substrate DiFMUP; prompt fluorescence
Description: SHP2 Allosteric Inhibition Assay
SHP2 is allosterically activated through binding of bis-tyrosyl-phorphorylated peptides to its Src Homology 2 (SH2) domains. The latter activation step leads to the release of the auto-inhibitory interface of SHP2, which in turn renders the SHP2 protein tyrosine phosphatase (PTP) active and available for substrate recognition and reaction catalysis. The catalytic activity of SHP2 was monitored using the surrogate substrate DiFMUP in a prompt fluorescence assay format.
After 30-60 minutes incubation at 25° C., the surrogate substrate DiFMUP (Invitrogen, cat #D6567) was added to the reaction and incubated at 25° C. for 30 minutes. […] The inhibitor dose response curves were analyzed using normalized IC50 regression curve fitting with control based normalization.

| IC50 [nM] | SMILES |
| --- | --- |
| 4 | CC1(N)CCN(c2cnc(Sc3cccc(NC(=O)C4=C(O)CN(c5ccccc5)C4=O)c3C(F)(F)F)c(N)n2)CC1 [Example 67, N-(3-((3-Amino-5-(4-amino-4-methylpiperidin-1-yl)pyrazin-2-yl)thio)-2-(trifluoromethyl)phenyl)-4-hydroxy-2-oxo-1-phenyl-2,5-dihydro-1H-pyrrole-3-carboxamide] |
| 7 | CC1(CN)CCN(c2cnc(Sc3cccc(NC(=O)c4c(O)nc5n(c4=O)CCCC5)c3Cl)cn2)CC1 [Example 45, N-(3-((5-(4-(aminomethyl)-4-methylpiperidin-1-yl)pyrazin-2-yl)thio)-2-chlorophenyl)-2-hydroxy-4-oxo-6,7,8,9-tetrahydro-4H-pyrido[1,2-a]pyrimidine-3-carboxamide] |
| 36 | O=C(Nc1cccc(Sc2ccc3nc(N4CCCCC4)[nH]c3n2)c1Cl)c1c(O)c2nccnc2[nH]c1=O [Example 49, N-(2-chloro-3-((2-(piperidin-1-yl)-3H-imidazo[4,5-b]pyridin-5-yl)thio)phenyl)-8-hydroxy-6-oxo-5,6-dihydropyrido[2,3-b]pyrazine-7-carboxamide] |
| 12 | CC1(CN)CCN(c2nnc(Sc3cccc(NC(=O)C4=C(O)CN(c5ccccc5)C4=O)c3Cl)c(N)n2)CC1 [Example 51, N-(3-((5-amino-3-(4-(aminomethyl)-4-methylpiperidin-1-yl)-1,2,4-triazin-6-yl)thio)-2-chlorophenyl)-4-hydroxy-2-oxo-1-phenyl-2,5-dihydro-1H-pyrrole-3-carboxamide] |
| 3 | CC1(N)CCN(c2nnc(Sc3cccc(NC(=O)C4=C(O)CN(c5ccccc5)C4=O)c3Cl)c(N)n2)CC1 [Example 52, N-(3-((5-amino-3-(4-amino-4-methylpiperidin-1-yl)-1,2,4-triazin-6-yl)thio)-2-chlorophenyl)-4-hydroxy-2-oxo-1-phenyl-2,5-dihydro-1H-pyrrole-3-carboxamide] |
| 12 | NCC1(O)CCN(c2cnc(Sc3cccc(NC(=O)c4c(O)nc5n(c4=O)CCCC5)c3Cl)c(N)n2)CC1 [Example 11, N-(3-((3-amino-5-(4-(aminomethyl)-4-hydroxypiperidin-1-yl)pyrazin-2-yl)thio)-2-chlorophenyl)-2-hydroxy-4-oxo-6,7,8,9-tetrahydro-4H-pyrido[1,2-a]pyrimidine-3-carboxamide] |
| 6 | CC1(CN)CCN(c2cnc(Sc3cccc(NC(=O)c4c(O)nc5n(c4=O)CCCC5)c3Cl)c(N)n2)CC1 [Example 7, N-(3-((3-amino-5-(4-(aminomethyl)-4-methylpiperidin-1-yl)pyrazin-2-yl)thio)-2-chlorophenyl)-2-hydroxy-4-oxo-6,7,8,9-tetrahydro-4H-pyrido[1,2-a]pyrimidine-3-carboxamide] |
| 5000 | Nc1nc(N2CCC(N)(C(F)(F)F)CC2)cnc1Sc1cccc(NC(=O)c2c(O)nc3n(c2=O)CCCC3)c1Cl [Example 20, N-(3-((3-amino-5-(4-amino-4-(trifluoromethyl)piperidin-1-yl)pyrazin-2-yl)thio)-2-chlorophenyl)-2-hydroxy-4-oxo-6,7,8,9-tetrahydro-4H-pyrido[1,2-a]pyrimidine-3-carboxamide] |
| 8 | NCC1(F)CCN(c2cnc(Sc3cccc(NC(=O)c4c(O)nc5n(c4=O)CCCC5)c3Cl)c(N)n2)CC1 [Example 16, N-(3-((3-amino-5-(4-(aminomethyl)-4-fluoropiperidin-1-yl)pyrazin-2-yl)thio)-2-chlorophenyl)-2-hydroxy-4-oxo-6,7,8,9-tetrahydro-4H-pyrido[1,2-a]pyrimidine-3-carboxamide] |
| 38 | CC1(CN)CCN(c2nnc(Sc3cccc(NC(=O)c4c(O)nc5ccccc5c4O)c3Cl)c(N)n2)CC1 [Example 31, N-(3-((5-amino-3-(4-(aminomethyl)-4-methylpiperidin-1-yl)-1,2,4-triazin-yl)thio)-2-chlorophenyl)-2,4-dihydroxyquinoline-3-carboxamide] |
| 90 | O=C(Nc1cccc(Sc2ccc3nc(N4CCCCC4)[nH]c3n2)c1Cl)C1=C(O)[C@H](c2ccccc2)NC1=O [Example 64, (S)-N-(2-chloro-3-((2-(piperidin-1-yl)-3H-imidazo[4,5-b]pyridin-5-yl)thio)phenyl)-4-hydroxy-2-oxo-5-phenyl-2,5-dihydro-1H-pyrrole-3-carboxamide] |
| 1.5 | Nc1nc(N2CCC3(CCC[C@H]3N)CC2)nnc1Sc1cccc(NC(=O)c2c(O)nc3n(c2=O)CCCC3)c1Cl [Example 43, (R)-N-(3-((5-amino-3-(1-amino-8-azaspiro[4.5]decan-8-yl)-1,2,4-triazin-6-yl)thio)-2-chlorophenyl)-2-hydroxy-4-oxo-6,7,8,9-tetrahydro-4H-pyrido[1,2-a]pyrimidine-3-carboxamide] |
| 12 | CC[C@@H]1OCC2(CCN(c3cnc(Sc4cccc(NC(=O)c5c(O)nc6n(c5=O)CCCC6)c4Cl)c(N)n3)CC2)[C@@H]1N [Example 29, N-(3-((3-amino-5-((3S,4S)-4-amino-3-ethyl-2-oxa-8-azaspiro[4.5]decan-8-yl)pyrazin-2-yl)thio)-2-chlorophenyl)-2-hydroxy-4-oxo-6,7,8,9-tetrahydro-4H-pyrido[1,2-a]pyrimidine-3-carboxamide] |
| 6 | CC1(CN)CCN(c2cnc(Sc3cccc(NC(=O)c4c(O)nc5sccn5c4=O)c3Cl)c(N)n2)CC1 [Example 3, N-(3-((3-amino-5-(4-(aminomethyl)-4-methylpiperidin-1-yl)pyrazin-2-yl)thio)-2-chlorophenyl)-7-hydroxy-5-oxo-5H-thiazolo[3,2-a]pyrimidine-6-carboxamide] |
| 2.8 | CCC1C(O)=C(C(=O)Nc2cccc(Sc3ncc(N4CCC(C)(N)CC4)nc3N)c2Cl)C(=O)N1C (stereo not drawn) [Example 55, N-(3-((3-amino-5-(4-amino-4-methylpiperidin-1-yl)pyrazin-2-yl)thio)-2-chlorophenyl)-5-ethyl-4-hydroxy-1-methyl-2-oxo-2,5-dihydro-1H-pyrrole-3-carboxamide] |
| 13 | CC1(CN)CCN(c2nnc(Sc3cccc(NC(=O)c4c(O)nc5c6ccccc6ccn5c4=O)c3Cl)c(N)n2)CC1 [Example 39, N-(3-((5-amino-3-(4-(aminomethyl)-4-methylpiperidin-1-yl)-1,2,4-triazin-6-yl)thio)-2-chlorophenyl)-2-hydroxy-4-oxo-4H-pyrimido[2,1-a]isoquinoline-3-carboxamide] |
| 5 | CC1(CN)CCN(c2cnc(Sc3cccc(NC(=O)c4c(O)nc5[nH]ccn5c4=O)c3Cl)c(N)n2)CC1 [Example 6, N-(3-((3-amino-5-(4-(aminomethyl)-4-methylpiperidin-1-yl)pyrazin-2-yl)thio)-2-chloropheny1)-7-hydroxy-5-oxo-1,5-dihydroimidazo[1,2-a]pyrimidine-6-carboxamide] |
| 16 | C[C@@H]1CC2(CCN(c3cnc(Sc4cccc(NC(=O)c5c(O)nc6n(c5=O)CCCC6)c4Cl)c(N)n3)CC2)[C@H](N)[C@H]1F [Example 30, N-(3-((3-amino-5-((1S,2S,3R)-1-amino-2-fluoro-3-methyl-8-azaspiro[4.5]decan-8-yl)pyrazin-2-yl)thio)-2-chlorophenyl)-2-hydroxy-4-oxo-6,7,8,9-tetrahydro-4H-pyrido[1,2-a]pyrimidine-3-carboxamide] |
| 4.6 | Nc1nc(N2CCC(N)(CF)CC2)cnc1Sc1cccc(NC(=O)c2c(O)nc3ccccn3c2=O)c1Cl [Example 13, N-(3-((3-amino-5-(4-amino-4-(fluoromethyl)piperidin-1-yl)pyrazin-2-yl)thio)-2-chlorophenyl)-2-hydroxy-4-oxo-4H-pyrido[1,2-a]pyrimidine-3-carboxamide] |
| 4.4 | CC1(N)CCN(c2cnc(Sc3cccc(NC(=O)C4=C(O)CN(c5ccccc5)C4=O)c3Cl)c(N)n2)CC1 [Example 53, N-(3-((3-amino-5-(4-amino-4-methylpiperidin-1-yl)pyrazin-2-yl)thio)-2-chlorophenyl)-4-hydroxy-2-oxo-1-phenyl-2,5-dihydro-1H-pyrrole-3-carboxamide] |
| 14 | CC1(CN)CCN(c2nnc(Sc3cccc(NC(=O)c4c(O)nc5cnccn5c4=O)c3Cl)c(N)n2)CC1 [Example 34, N-(3-((5-amino-3-(4-(aminomethyl)-4-methylpiperidin-1-yl)-1,2,4-triazin-6-yl)thio)-2-chlorophenyl)-2-hydroxy-4-oxo-4H-pyrazino[1,2-a]pyrimidine-3-carboxamide] |
| 6.6 | CNC1(C)CCN(c2cnc(Sc3cccc(NC(=O)C4=C(O)CN(c5ccccc5)C4=O)c3Cl)c(N)n2)CC1 [Example 56, N-(3-((3-amino-5-(4-methyl-4-(methylamino)piperidin-1-yl)pyrazin-2-yl)thio)-2-chlorophenyl)-4-hydroxy-2-oxo-1-phenyl-2,5-dihydro-1H-pyrrole-3-carboxamide] |
| 10 | Nc1nc(N2CCC3(CC2)CCC(F)(F)[C@H]3N)cnc1Sc1cccc(NC(=O)c2c(O)nc3ccccn3c2=O)c1Cl [Example 22, (S)-N-(3-((3-amino-5-(1-amino-2,2-difluoro-8-azaspiro[4.5]decan-8-yl)pyrazin-2-yl)thio)-2-chlorophenyl)-2-hydroxy-4-oxo-4H-pyrido[1,2-a]pyrimidine-3-carboxamide] |
| 5.9 | Nc1nc(N2CCC(N)(CF)CC2)cnc1Sc1cccc(NC(=O)c2c(O)nc3n(c2=O)CCCC3)c1Cl [Example 14, N-(3-((3-amino-5-(4-amino-4-(fluoromethyl)piperidin-1-yl)pyrazin-2-yl)thio)-2-chlorophenyl)-2-hydroxy-4-oxo-6,7,8,9-tetrahydro-4H-pyrido[1,2-a]pyrimidine-3-carboxamide] |
